This passage reports EC50 results from US9403808B2, “Pyrazine derivatives” (Hoffmann-La Roche Inc., priority 2011, dated 2016).

Experiment [1] has as its target human CB1 receptors (Homo sapiens (Human), UniProt P21554). Nature of the experiment: functional cAMP assay, CB1. Format: cell-based. As to conditions: functional cAMP assay, CHO cells expressing human CB1; read-out: human CB1 EC50. How it is done: CHO cells expressing human CB1 or CB2 receptors are seeded 17-24 hours prior to the experiment 50.000 cells per well in a black 96 well plate with flat clear bottom (Corning Costar #3904) in DMEM (Invitrogen No. 31331), 1×HT supplement, with 10% fetal calf serum and incubated at 5% CO2 and 37° C. in a humidified incubator. The growth medium was exchanged with Krebs Ringer Bicarbonate buffer with 1 mM IBMX and incubated at 30° C. for 30 min. Compounds were added to a final assay volume of 100 μl and incubated for 30 min at 30° C. Using the cAMP-Nano-TRF detection kit the assay (Roche Diagnostics) was stopped by the addition of 50 μl lysis reagent (Tris, NaCl, 1.5% Triton X100, 2.5% NP40, 10% NaN3) and 50 μl detection solutions (20 μM mAb Alexa700-cAMP 1:1, and 48 μM Ruthenium-2-AHA-cAMP) and shaken for 2 h at room temperature. The time-resolved energy transfer is measured by a TRF reader (Evotec Technologies GmbH), equipped with a ND:YAG laser as excitation source. The plate is measured twice with the excitation at 355 nm and at the emission with a delay of 100 ns and a gate of 100 ns, total exposure time 10s at 730 (bandwidth 30 nm) or 645 nm (bandwidth 75 nm), respectively. The FRET signal is calculated as follows: FRET=T730-Alexa730-P(T645-B645) with P=Ru730-B730/Ru645-B645, where T730 is the test well measured at […], T645 is the test well measured at 645 nm, B730 and B645 are the buffer controls at 730 nm and 645 nm, respectively. cAMP content is determined from the function of a standard curve spanning from 10 μM to 0.13 nM cAMP.
EC50 values were determined using Activity Base analysis (ID Business Solution, Limited). The EC50 values for a wide range of cannabinoid agonists generated from this assay were in agreement with the values published in the scientific literature.
Background: Cyclic AMP is a second messenger, typically raised through Gs and lowered through Gi signalling.

Experiment [2] concerns the target human CB2 receptors (Homo sapiens (Human), UniProt P34972). Nature of the experiment: functional cAMP assay, CB2. Format: cell-based. The following applies: functional cAMP assay, CHO cells expressing human CB2; read-out: human CB2 EC50. The method in brief: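 CHO cells expressing human CB1 or CB2 were preincubated 30 min at 30 °C in Krebs Ringer bicarbonate buffer with 1 mM IBMX, then exposed to compound for 30 min at 30 °C. cAMP was measured by TR-FRET (cAMP-Nano-TRF) against a 10 μM–0.13 nM cAMP standard curve, and EC50 values were derived.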

Chain of human CB1 receptors (P21554 whole entry): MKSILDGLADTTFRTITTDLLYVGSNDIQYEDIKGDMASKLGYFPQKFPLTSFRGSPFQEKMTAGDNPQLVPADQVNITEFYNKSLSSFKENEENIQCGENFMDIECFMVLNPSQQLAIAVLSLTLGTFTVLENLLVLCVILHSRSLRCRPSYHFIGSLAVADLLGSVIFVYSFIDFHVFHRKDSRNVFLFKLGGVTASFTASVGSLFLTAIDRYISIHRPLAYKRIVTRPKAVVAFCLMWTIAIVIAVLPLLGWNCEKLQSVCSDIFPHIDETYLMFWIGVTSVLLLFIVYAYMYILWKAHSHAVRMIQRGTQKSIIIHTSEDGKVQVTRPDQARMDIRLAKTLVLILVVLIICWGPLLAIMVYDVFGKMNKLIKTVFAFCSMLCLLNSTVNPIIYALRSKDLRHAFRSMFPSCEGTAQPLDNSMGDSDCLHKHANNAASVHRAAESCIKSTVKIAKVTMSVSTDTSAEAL
Chain of human CB2 receptors (P34972 whole entry): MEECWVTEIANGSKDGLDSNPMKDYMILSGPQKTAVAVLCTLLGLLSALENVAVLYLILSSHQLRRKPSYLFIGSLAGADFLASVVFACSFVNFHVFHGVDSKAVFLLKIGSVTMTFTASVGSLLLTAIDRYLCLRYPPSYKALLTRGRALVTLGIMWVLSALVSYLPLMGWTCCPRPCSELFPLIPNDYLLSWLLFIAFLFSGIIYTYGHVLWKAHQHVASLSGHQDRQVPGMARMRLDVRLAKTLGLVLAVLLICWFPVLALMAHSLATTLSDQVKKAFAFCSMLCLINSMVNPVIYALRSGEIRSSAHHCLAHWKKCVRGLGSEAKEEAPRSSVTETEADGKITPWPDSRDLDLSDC

As to `NC(=O)[C@H](CC1CC1)NC(=O)c1cnc(C2CC2)c(OCC2CC2)n1` [Example 28, 5-Cyclopropyl-6-cyclopropylmethoxy-pyrazine-2-carboxylic acid ((S)-1-carbamoyl-2-cyclopropyl-ethyl)-amide], the EC50 (usually the concentration giving half of the maximal effect) is over 10000 nM in experiment [1] and 43.5 nM in experiment [2].

As to `CC(C)C[C@H](NC(=O)c1cnc(C2CC2)c(OCC2CC2)n1)C(N)=O` [Example 29, 5-Cyclopropyl-6-cyclopropylmethoxy-pyrazine-2-carboxylic acid ((S)-1-carbamoyl-3-methyl-butyl)-amide], the values for the concentration for a half-maximal effect (EC50) in experiment [1] and in experiment [2] were 1570 nM and 4.1 nM, respectively.

For the molecule `CCC(CC)(NC(=O)c1cnc(C2CC2)c(OCC2CC2)n1)C(=O)OC` [Example 30, 2-[(5-Cyclopropyl-6-cyclopropylmethoxy-pyrazine-2-carbonyl)-amino]-2-ethyl-butyric acid methyl ester], the EC50 in experiment [1] came out at 255 nM; in experiment [2], 1.4 nM.

For `CNC(=O)[C@H](CC1CC1)NC(=O)c1cnc(N2CC(F)(F)C2)c(OCC2CC2)n1` [Example 31, 6-Cyclopropylmethoxy-5-(3,3-difluoro-azetidin-1-yl)-pyrazine-2-carboxylic acid ((S)-2-cyclopropyl-1-methylcarbamoyl-ethyl)-amide], the EC50 in experiment [1] was over 10000 nM; in experiment [2] it was 124 nM.

Take `CN(C)C(=O)[C@H](CC1CC1)NC(=O)c1cnc(N2CC(F)(F)C2)c(OCC2CC2)n1` [Example 32, 6-Cyclopropylmethoxy-5-(3,3-difluoro-azetidin-1-yl)-pyrazine-2-carboxylic acid ((S)-2-cyclopropyl-1-dimethylcarbamoyl-ethyl)-amide]: the figures for the EC50 in experiment [1] and in experiment [2] were over 10000 nM and 59.6 nM, respectively.

`CNC(=O)[C@H](CC(C)C)NC(=O)c1cnc(N2CC(F)(F)C2)c(OCC2CC2)n1` [Example 33, 6-Cyclopropylmethoxy-5-(3,3-difluoro-azetidin-1-yl)-pyrazine-2-carboxylic acid ((S)-3-methyl-1-methylcarbamoyl-butyl)-amide]: the EC50 in experiment [1] is over 10000 nM; in experiment [2] it was 11.8 nM.

In the case of `CC(C)C[C@H](NC(=O)c1cnc(N2CC(F)(F)C2)c(OCC2CC2)n1)C(=O)N(C)C` [Example 34, 6-Cyclopropylmethoxy-5-(3,3-difluoro-azetidin-1-yl)-pyrazine-2-carboxylic acid ((S)-1-dimethylcarbamoyl-3-methyl-butyl)-amide], the 50% effective concentration (EC50) in experiment [1] is over 10000 nM; in experiment [2], 13.6 nM.

As to `COC(=O)[C@H](CC1CC1)NC(=O)c1cnc(C2CC2)c(OCC2CC2)n1` [Example 35, (S)-3-Cyclopropyl-2-[(5-cyclopropyl-6-cyclopropylmethoxy-pyrazine-2-carbonyl)-amino]-propionic acid methyl ester], the EC50 in experiment [1] is over 10000 nM; in experiment [2] it was 43.3 nM.

As for `COC(=O)[C@H](CC1CC1)NC(=O)c1cnc(N2CC(F)(F)C2)c(OCC2CC2)n1` [Example 36, (S)-3-Cyclopropyl-2-{[6-cyclopropylmethoxy-5-(3,3-difluoro-azetidin-1-yl)-pyrazine-2-carbonyl]-amino}-propionic acid methyl ester], the results for the EC50 in experiment [1] and in experiment [2] were over 10000 nM and 9.6 nM, respectively.

As to `NC(=O)[C@H](Cc1ccccc1)NC(=O)c1cnc(C2CC2)c(OCC2CC2)n1` [Example 37, 5-Cyclopropyl-6-cyclopropylmethoxy-pyrazine-2-carboxylic acid ((S)-1-carbamoyl-2-phenyl-ethyl)-amide], the EC50 in experiment [1] is 1640 nM; in experiment [2], 108 nM.

Consider `NC(=O)[C@H](Cc1ccccc1)NC(=O)c1cnc(N2CC(F)(F)C2)c(OCC2CC2)n1` [Example 38, 6-Cyclopropylmethoxy-5-(3,3-difluoro-azetidin-1-yl)-pyrazine-2-carboxylic acid ((S)-1-carbamoyl-2-phenyl-ethyl)-amide], for which the results for the EC50 in experiment [1] and in experiment [2] were over 10000 nM and 44.4 nM, respectively.

With `NC(=O)[C@H](CC1CC1)NC(=O)c1cnc(N2CC(F)(F)C2)c(OCC2CC2)n1` [Example 39, 6-Cyclopropylmethoxy-5-(3,3-difluoro-azetidin-1-yl)-pyrazine-2-carboxylic acid ((S)-1-carbamoyl-2-cyclopropyl-ethyl)-amide], the results for the EC50 in experiment [1] and in experiment [2] were over 10000 nM and 11 nM, respectively.

For `CC(C)(C)[C@H](NC(=O)c1cnc(C2CC2)c(OCC2CC2)n1)C(=O)O` [Example 44, (S)-2-[(5-Cyclopropyl-6-cyclopropylmethoxy-pyrazine-2-carbonyl)-amino]-3,3-dimethyl-butyric acid], the EC50 in experiment [1] is over 10000 nM; in experiment [2], 442 nM.

With `Cc1nc(C(C)(C)NC(=O)c2cnc(C3CC3)c(OCC3CC3)n2)no1` [Example 45, 5-Cyclopropyl-6-cyclopropylmethoxy-pyrazine-2-carboxylic acid [1-methyl-1-(5-methyl-[1,2,4]oxadiazol-3-yl)-ethyl]-amide], the values for the EC50 in experiment [1] and in experiment [2] were over 10000 nM and 51.4 nM, respectively.

`C[C@H](NC(=O)c1cnc(C2CC2)c(OCC2CC2)n1)c1ccccn1` [Example 46, 5-Cyclopropyl-6-cyclopropylmethoxy-pyrazine-2-carboxylic acid ((S)-1-pyridin-2-yl-ethyl)-amide]: the EC50 in experiment [1] is over 10000 nM; in experiment [2], 291 nM.

Consider `O=C(N[C@H](c1ccccn1)C(F)(F)F)c1cnc(N2CC(F)(F)C2)c(OCC2CC2)n1` [Example 47, 6-Cyclopropylmethoxy-5-(3,3-difluoro-azetidin-1-yl)-pyrazine-2-carboxylic acid ((R)-2,2,2-trifluoro-1-pyridin-2-yl-ethyl)-amide], for which the EC50 in experiment [1] is over 10000 nM; in experiment [2], 72.9 nM.

With `O=C(N[C@@H](c1ccccn1)C(F)(F)F)c1cnc(N2CC(F)(F)C2)c(OCC2CC2)n1` [Example 48, 6-Cyclopropylmethoxy-5-(3,3-difluoro-azetidin-1-yl)-pyrazine-2-carboxylic acid ((S)-2,2,2-trifluoro-1-pyridin-2-yl-ethyl)-amide], the results for the EC50 in experiment [1] and in experiment [2] were over 10000 nM and 24.4 nM, respectively.

Turning to `O=C(N[C@@H](c1ccccn1)C(F)(F)F)c1cnc(C2CC2)c(OCC2CC2)n1` [Example 49, 5-Cyclopropyl-6-cyclopropylmethoxy-pyrazine-2-carboxylic acid ((S)-2,2,2-trifluoro-1-pyridin-2-yl-ethyl)-amide], the half-maximal effective concentration (EC50) in experiment [1] is over 10000 nM; in experiment [2], 107 nM.

As for `CCC(CC)(NC(=O)c1cnc(N2CC(F)(F)C2)c(OCC2CC2)n1)C(=O)NC` [Example 50, 6-Cyclopropylmethoxy-5-(3,3-difluoro-azetidin-1-yl)-pyrazine-2-carboxylic acid (1-ethyl-1-methylcarbamoyl-propyl)-amide], the EC50 was over 10000 nM in experiment [1] and 7.4 nM in experiment [2].

With `CC(C)[C@](C)(CO)NC(=O)c1cnc(C2CC2)c(OCC2CC2)n1` [Example 51, 5-Cyclopropyl-6-cyclopropylmethoxy-pyrazine-2-carboxylic acid ((R)-1-hydroxymethyl-1,2-dimethyl-propyl)-amide], the concentration giving a half-maximal response (EC50) in experiment [1] is over 10000 nM; in experiment [2], 137 nM.

Take `CC(C)[C@@](C)(CO)NC(=O)c1cnc(C2CC2)c(OCC2CC2)n1` [Example 52, 5-Cyclopropyl-6-cyclopropylmethoxy-pyrazine-2-carboxylic acid ((S)-1-hydroxymethyl-1,2-dimethyl-propyl)-amide]: the EC50 in experiment [1] is over 10000 nM; in experiment [2], 36.9 nM.

As to `CCC(CC)(NC(=O)c1cnc(C2CC2)c(OCC2CC2)n1)C(=O)NC` [Example 53, 5-Cyclopropyl-6-cyclopropylmethoxy-pyrazine-2-carboxylic acid (1-ethyl-1-methylcarbamoyl-propyl)-amide], the results for the EC50 in experiment [1] and in experiment [2] were over 10000 nM and 15.1 nM, respectively.

For `Cc1csc(C(C)(C)NC(=O)c2cnc(C3CC3)c(OCC3CC3)n2)n1` [Example 54, 5-Cyclopropyl-6-cyclopropylmethoxy-pyrazine-2-carboxylic acid [1-methyl-1-(4-methyl-thiazol-2-yl)-ethyl]-amide], the results for the 50% effective concentration (EC50) in experiment [1] and in experiment [2] were over 10000 nM and 188 nM, respectively.

Turning to `Cc1csc(C(C)(C)NC(=O)c2cnc(N3CC(F)(F)C3)c(OCC3CC3)n2)n1` [Example 55, 6-Cyclopropylmethoxy-5-(3,3-difluoro-azetidin-1-yl)-pyrazine-2-carboxylic acid [1-methyl-1-(4-methyl-thiazol-2-yl)-ethyl]-amide], the concentration giving a half-maximal response (EC50) in experiment [1] was over 10000 nM; in experiment [2] it was 22 nM.
